Results published in patent US5516784A, “Anti-HIV (AIDS) agents” (Schering Corporation, priority 1994, dated 1996).
In brackets after ≈: the same amount, converted by molar mass.

Assays:
HIV-1, isolate III B = assay: Test 2: inhibition of the growth of HIV-1 in tissue culture cells (CEM-SS, syncytia formation); type: cell-based; conditions: Human immunodeficiency virus 1, 168 h, 7 days, read-out: HIVMIC IC50
Text: TEST 2-INHIBITION OF THE GROWTH OF HIV-1 IN TISSUE CULTURE CELLS
This test measured the capability of the compounds to inhibit the growth of HIV-1 in tissue culture cells. CEM-SS cells (human T-lymphocyte derived tissue culture cells) were infected with HIV-1, isolate III B which was produced in tissue culture. After 7 days, the virus has killed the cells as monitored by extensive syncytia formation (cell fusion). The test measured the capability of the chemical synthetic compounds to prevent syncytia formation and cell death. CEM cells were grown at 37° C. in an atmosphere of 5% CO2. HIV isolate III B was prepared by growth in and crude purification from CEM cells. The chemical synthetic compound was added to 96 well microtiter plates and diluted in varying steps across the wells of the plate. Cells and virus were added to each well and the concentration of the chemical synthetic compound required to inhibit syncytia formation by 50% (the IC50) after 7 days was determined. The viability of CEM cells which are not infected with HIV-1 isolate III B was simultaneously determined by the MTT assay, as described in Mossman, J. Immunolog. Methods 65:55-63, 1983, which is herein incorporated by reference.

HIV1 protease [1] = target: T1, HIV1 protease (Human immunodeficiency virus type 1 group M subtype B, UniProt P04585); assay: Test 1: inhibition of proteolytic activity of HIV-1 protease (HPLC); type: biochemical; parameters: proteolytic activity of HIV-1 protease; conditions: HPLC; HIV Substrate III; read-out: Enzyme Assays (HPLC) IC50
Experimental: TEST I-INHIBITION OF PROTEOLYTIC ACTIVITY OF HIV-1-PROTEASE
The ability of compounds of the invention to inhibit the proteolytic activity of HIV-1 protease was determined by using the method of Louis, et al., Biochem. Biophys. Res. Comm. 159:87-94, (1989), which is herein incorporated by reference. In using the method of Louis et al., HIV Substrate III, His-Lys-Ala-Arg-VaI-Leu-pNO2 Phe-Glu-Ala-Nle-Ser-NH2 purchased from Bachem Bioscience, Inc. Philadelphia, Pa. was used in place of the nonapeptide substrate […]amide.

HIV1 protease [2] = target: T1, HIV1 protease; assay: Test 3: inhibition of proteolytic activity of HIV-1 protease by scintillation proximity assay (SPA); type: biochemical; conditions: SPA; room temperature, 40 minutes; read-out: Enzyme Assays (SPA) IC50
Text: TEST 3-INHIBITION OF PROTEOLYTIC ACTIVITY OF HIV-1-PROTEASE AS DETERMINED BY SCINTILLATION […] ASSAY (SPA).
This is an alternative assay to test #1 and is used to determine the ability of compounds to inhibit the HIV1 protease activity. The SPA assay for HIV1 protease has been developed by Amersham Corporation, Arlington Heights, Ill., and is available for commercial use. In this system the substrate for HIV1 protease, AcN-(I^125)[…]SPA bead, is cleaved by the HIV1 protease at the Phe-Phe bond releasing the I^125 -labelled peptide fragment from the SPA bead. This event causes removal of detectable signal from the microsphere bead indicated by reduction in radioactivity (measured in CPM), which is proportional to the proteolytic activity. The substrate, and the HIV 1 protease were incubated in presence of synthetic compound in various dilutions at room temperature for 40 minutes, and the concentration of the compound required to inhibit the proteolytic activity by 50% (IC50) was determined.

SMILES	IC50 (HIV-1, isolate III B) [µg/mL]	IC50 (HIV1 protease [1]) [µM]	IC50 (HIV1 protease [2]) [µM]
CC(C)(C)NC(=O)c1ccccc1OC[C@H](O)[C@H](Cc1ccccc1)NC(=O)[C@H](CC(N)=O)NC(=O)c1ccc2ccccc2n1 [Compound 4]	1.7 (≈ 2.72 µM)	0.01	
CC(C)(C)NC(=O)C1CCCC1SCC(O)[C@H](Cc1ccccc1)NC(=O)[C@H](CC(N)=O)NC(=O)c1ccc2ccccc2n1 (stereo partly drawn) [Compound 13]	5.07 (≈ 8 µM)	0.3	
NC(=O)C[C@H](NC(=O)c1ccc2ccccc2n1)C(=O)N[C@@H](Cc1ccccc1)[C@@H](O)CSC1CCCC1C(=O)Nc1ccccc1 (stereo partly drawn) [Compound 20]	6.26 (≈ 9.57 µM)	0.074	
CCC(C)[C@H](NC(=O)c1ccc2ccccc2n1)C(=O)N[C@@H](Cc1ccccc1)[C@@H](O)COc1ccccc1C(=O)NC(C)(C)C (stereo partly drawn) [Compound 37]	6.08 (≈ 9.73 µM)	0.06	
CC(C)(C)NC(=O)c1ccccc1SC[C@H](O)[C@H](Cc1ccccc1)NC(=O)[C@@H](CC(N)=O)NC(=O)c1ccc2ccccc2n1 [Compound 47]		> 0.1	
CC(C)(C)NC(=O)c1ccccc1SC[C@H](O)[C@H](Cc1ccccc1)NC(=O)[C@H](CCC(N)=O)NC(=O)c1ccc2ccccc2n1 [Compound 48]		> 0.1	
CC(C)(C)NC(=O)c1ccccc1SC[C@H](O)[C@H](Cc1ccccc1)NC(=O)[C@H](CC(N)=O)NC(=O)c1ccc2ccccc2c1 [Compound 52]	8.58 (≈ 13.4 µM)		0.39
CC(C)(C)NC(=O)c1ccccc1SC[C@H](O)[C@H](Cc1ccccc1)NC(=O)[C@H](CC(N)=O)NC(=O)c1cccc[n+]1[O-] [Compound 55]		> 0.1	
CC(C)(C)NC(=O)c1ccccc1OC[C@H](O)[C@H](Cc1ccccc1)NC(=O)[C@H](CC(N)=O)NC(=O)c1cnc2ccccc2n1 [Compound 59]	1.41 (≈ 2.25 µM)	0.005	
CC(C)(C)NC(=O)c1ccccc1OC[C@@H](O)[C@@H](NC(=O)[C@H](CC(N)=O)NC(=O)c1ccc2ccccc2n1)c1ccccc1 [Compound 75]		> 0.5	
CCC[C@H](NC(=O)[C@H](CC(N)=O)NC(=O)c1ccc2ccccc2n1)[C@H](O)COc1ccccc1C(=O)NC(C)(C)C [Compound 77]	17.5 (≈ 30.3 µM)		
CC(C)(C)NC(=O)c1ccccc1SC[C@H](O)[C@H](Cc1ccc(O)cc1)NC(=O)[C@H](CC(N)=O)NC(=O)c1ccc2ccccc2n1 [Compound 79]	9.1 (≈ 13.8 µM)		> 0.5
COc1ccc(C[C@H](NC(=O)OC(C)(C)C)C(=O)N[C@@H](Cc2ccccc2)[C@@H](O)CSc2ccccc2C(=O)NC(C)(C)C)cc1 [IN 2]		> 0.1	
CC(C)(C)NC(=O)c1ccccc1SC[C@H](O)[C@H](Cc1ccccc1)NC(=O)[C@H](CCC(N)=O)NC(=O)OC(C)(C)C [IN 3]		> 0.1	
CC(C)(C)NC(=O)c1ccccc1SC[C@H](O)[C@H](Cc1ccccc1)NC(=O)[C@H](Cc1c[nH]c2ccccc12)NC(=O)OC(C)(C)C [IN 6]		> 0.1	

Now from value to compound:

IC50 (HIV-1, isolate III B) [µg/mL]	IC50 (HIV1 protease [1]) [µM]	IC50 (HIV1 protease [2]) [µM]	SMILES
7.99 (≈ 12.4 µM)	< 0.5		CC(C)(C)NC(=O)c1ccccc1SC[C@H](O)[C@H](Cc1ccccc1)NC(=O)[C@H](CC(N)=O)NC(=O)c1ccc2ccccc2n1 [Compound 2]
0.537 (≈ 0.837 µM)	0.054		CC(C)(C)NC(=O)c1ccccc1SC[C@@H](O)[C@H](Cc1ccccc1)NC(=O)[C@H](CC(N)=O)NC(=O)c1ccc2ccccc2n1 [Compound 3]
1.77 (≈ 2.83 µM)	0.008		CC(C)(C)NC(=O)c1ccccc1OC[C@@H](O)[C@H](Cc1ccccc1)NC(=O)[C@H](CC(N)=O)NC(=O)c1ccc2ccccc2n1 [Compound 5]
5.69 (≈ 8.87 µM)	0.05		CC(C)(C)NC(=O)c1ccccc1OC[C@H](O)[C@H](Cc1ccccc1)NC(=O)[C@H](CC(N)=O)NC(=O)c1ccc2ccccc2[n+]1[O-] [Compound 7]
28.1 (≈ 43.8 µM)	0.4		CCCCNC(=O)c1ccccc1SC[C@H](O)[C@H](Cc1ccccc1)NC(=O)[C@H](CC(N)=O)NC(=O)c1ccc2ccccc2n1 [Compound 8]
2.1 (≈ 3.28 µM)	0.026		CCC(C)[C@H](NC(=O)c1ccc2ccccc2n1)C(=O)N[C@@H](Cc1ccccc1)[C@@H](O)CSc1ccccc1C(=O)NC(C)(C)C (stereo partly drawn) [Compound 35]
19.4 (≈ 30.9 µM)	0.08		CC(C)[C@H](NC(=O)c1ccc2ccccc2n1)C(=O)N[C@@H](Cc1ccccc1)[C@@H](O)CSc1ccccc1C(=O)NC(C)(C)C [Compound 49]
	> 0.005		CC(C)(C)NC(=O)c1ccccc1SC[C@H](O)[C@H](Cc1ccccc1)NC(=O)[C@H](Cc1c[nH]c2ccccc12)NC(=O)c1ccc2ccccc2n1 [Compound 51]
	> 0.1		CCn1cc(C(=O)N[C@@H](CC(N)=O)C(=O)N[C@@H](Cc2ccccc2)[C@@H](O)CSc2ccccc2C(=O)NC(C)(C)C)c(=O)c2ccc(C)nc21 [Compound 53]
	> 0.1		CC(C)(C)NC(=O)c1ccccc1SC[C@H](O)[C@H](Cc1ccccc1)NC(=O)[C@H](CC(N)=O)NC(=O)c1ccccn1 [Compound 54]
	> 0.1		CC(C)(C)NC(=O)c1ccccc1SC[C@H](O)[C@H](Cc1ccccc1)NC(=O)[C@H](CC(N)=O)NC(=O)c1ccc(O)cn1 [Compound 56]
	> 0.1		CC(C)(C)NC(=O)c1ccccc1SC[C@H](O)[C@H](Cc1ccccc1)NC(=O)[C@H](CC(N)=O)NC(=O)c1ccc[n+]([O-])c1 [Compound 57]
	> 0.1		CC(C)(C)NC(=O)c1ccccc1SC[C@H](O)[C@H](Cc1ccccc1)NC(=O)[C@H](CC(N)=O)NC(=O)c1cccnc1O [Compound 58]
0.68 (≈ 1.05 µM)		0.23	CC(C)(C)NC(=O)c1ccccc1SC[C@@H](O)[C@H](CC1CCCCC1)NC(=O)[C@H](CC(N)=O)NC(=O)c1ccc2ccccc2n1 [Compound 78]
4.95 (≈ 8.19 µM)		0.08	CC(C)(C)NC(=O)c1ccccc1OC[C@H](O)[C@H](Cc1ccccc1)NC(=O)[C@H](CC(N)=O)NC(=O)OCc1ccccc1 [IN 1]
	> 0.1		CC(C)[C@H](NC(=O)OC(C)(C)C)C(=O)N[C@@H](Cc1ccccc1)[C@@H](O)CSc1ccccc1C(=O)NC(C)(C)C [IN 4]
	> 0.1		CSCC[C@H](NC(=O)OC(C)(C)C)C(=O)N[C@@H](Cc1ccccc1)[C@@H](O)CSc1ccccc1C(=O)NC(C)(C)C [IN 5]
